Reference: PubChem BioAssay (NCI)
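Growth conditions: 96-well plates. Treatment: test compound, 48 hours, 5 concentrations. Analysis: linear interpolation between bracketing concentrations; unreached endpoints set to highest concentration. Definition used: TGI = concentration required for complete inhibition of growth.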

system: CCRF-CEM leukemia; test: NCI anticancer screen, dose series, 48 h

Structure (SMILES)	TGI
N#CC1(C2SCCS2=O)C2=C(C(=O)c3ccccc3C2=O)N2CCCC21 (configuration not stated)	24.5 µM
CCOC(=O)c1[nH]c(COC(C)=O)c(CCCOC(C)=O)c1CCCOC(C)=O	> 100 µM
O=C(Nc1ccc([N+](=O)[O-])cc1)C1C(=O)C(=O)N(c2ccc([N+](=O)[O-])cc2)C1=O (configuration not stated)	> 100 µM
O=C(CCC/C(CC(=O)c1ccc(Br)cc1)=N\O)Nc1ccccc1	> 100 µM
CCOC(=O)C1N(S(=O)(=O)c2ccc(C)cc2)CCC12C(c1ccc(OC)cc1)NC1CCCCC12 (configuration not stated)	> 100 µM
COc1ccccc1NC(=O)C1=C(C)NC(C)=C(C(=O)Nc2ccccc2OC)C1c1ccc([N+](=O)[O-])cc1	> 100 µM
COC(=O)/C=C/C1C(C(=O)OC)C2(C(=O)OC)CCC1(C(=O)OC)N2 (configuration not stated)	> 100 µM
COc1ccc(C(=O)C(CO)Oc2ccccc2OC)cc1OC (configuration not stated)	> 100 µM
N#CC(/C(=N/NC(=O)C(=O)NN)C(=O)NC12CC3CC(CC(C3)C1)C2)c1ccccc1 (configuration not stated)	> 100 µM
CC(C)(C)C(=O)/C=C/c1ccc(Oc2ccccc2)cc1	40.5 µM
O=C(CN1CCCCC1)N1CCc2c([nH]c3ccccc23)C1c1cccnc1 (configuration not stated)	> 100 µM
COC(=O)C12C3C4C5(C(=O)OC)C(C1C35C(=O)N(C(C)C)C(C)C)C42C(=O)N(C(C)C)C(C)C (configuration not stated)	> 50 µM
Cc1cc(C)n(CCNCCn2nc(C)cc2C)n1	> 100 µM
O=C1CSC(Cc2nc3ccccc3[nH]2)=N1	> 94 µM
O=C(/C=C/c1ccccc1)/C=C/c1ccccc1	> 100 µM
N#C/C(=C\c1ccc(O)c(O)c1)C(N)=O	37.7 µM
N#CC(C(=O)/C(=N/Nc1nc(=S)[nH]n1N)C(C#N)c1ccccc1)c1ccccc1 (configuration not stated)	> 100 µM
N#CC(C#N)=c1[nH]c2cccc3c2-c2c(cccc2c3=C(C#N)C#N)[nH]1	> 100 µM

system: DLD-1 colon; test: NCI anticancer screen, dose series, 48 h

Structure (SMILES)	TGI
N#CC1(C2SCCS2=O)C2=C(C(=O)c3ccccc3C2=O)N2CCCC21 (configuration not stated)	14.1 µM
O=C(Nc1ccc([N+](=O)[O-])cc1)C1C(=O)C(=O)N(c2ccc([N+](=O)[O-])cc2)C1=O (configuration not stated)	> 100 µM
O=C(CCC/C(CC(=O)c1ccc(Br)cc1)=N\O)Nc1ccccc1	> 100 µM
CCOC(=O)C1N(S(=O)(=O)c2ccc(C)cc2)CCC12C(c1ccc(OC)cc1)NC1CCCCC12 (configuration not stated)	> 100 µM
COc1ccccc1NC(=O)C1=C(C)NC(C)=C(C(=O)Nc2ccccc2OC)C1c1ccc([N+](=O)[O-])cc1	> 100 µM
COC(=O)/C=C/C1C(C(=O)OC)C2(C(=O)OC)CCC1(C(=O)OC)N2 (configuration not stated)	> 100 µM
COc1ccc(C(=O)C(CO)Oc2ccccc2OC)cc1OC (configuration not stated)	> 100 µM
N#CC(/C(=N/NC(=O)C(=O)NN)C(=O)NC12CC3CC(CC(C3)C1)C2)c1ccccc1 (configuration not stated)	> 100 µM
CC(C)(C)C(=O)/C=C/c1ccc(Oc2ccccc2)cc1	61.4 µM
CCOC(=O)CCc1c(C)c2c(OC(C)=O)cc(OC(C)=O)cc2oc1=O	> 100 µM
O=C(CN1CCCCC1)N1CCc2c([nH]c3ccccc23)C1c1cccnc1 (configuration not stated)	> 100 µM
COC(=O)C12C3C4C5(C(=O)OC)C(C1C35C(=O)N(C(C)C)C(C)C)C42C(=O)N(C(C)C)C(C)C (configuration not stated)	> 38.4 µM
Cc1cc(C)n(CCNCCn2nc(C)cc2C)n1	> 100 µM
O=C1CSC(Cc2nc3ccccc3[nH]2)=N1	49 µM
O=C(/C=C/c1ccccc1)/C=C/c1ccccc1	32.5 µM
N#C/C(=C\c1ccc(O)c(O)c1)C(N)=O	> 100 µM
N#CC(C(=O)/C(=N/Nc1nc(=S)[nH]n1N)C(C#N)c1ccccc1)c1ccccc1 (configuration not stated)	> 100 µM
N#CC(C#N)=c1[nH]c2cccc3c2-c2c(cccc2c3=C(C#N)C#N)[nH]1	> 100 µM

system: HT29 colon; test: NCI anticancer screen, dose series, 48 h

Structure (SMILES)	TGI
N#CC1(C2SCCS2=O)C2=C(C(=O)c3ccccc3C2=O)N2CCCC21 (configuration not stated)	14.2 µM
CCOC(=O)c1[nH]c(COC(C)=O)c(CCCOC(C)=O)c1CCCOC(C)=O	> 100 µM
O=C(Nc1ccc([N+](=O)[O-])cc1)C1C(=O)C(=O)N(c2ccc([N+](=O)[O-])cc2)C1=O (configuration not stated)	> 100 µM
O=C(CCC/C(CC(=O)c1ccc(Br)cc1)=N\O)Nc1ccccc1	> 100 µM
CCOC(=O)C1N(S(=O)(=O)c2ccc(C)cc2)CCC12C(c1ccc(OC)cc1)NC1CCCCC12 (configuration not stated)	> 100 µM
COc1ccccc1NC(=O)C1=C(C)NC(C)=C(C(=O)Nc2ccccc2OC)C1c1ccc([N+](=O)[O-])cc1	> 100 µM
COC(=O)/C=C/C1C(C(=O)OC)C2(C(=O)OC)CCC1(C(=O)OC)N2 (configuration not stated)	> 100 µM
COc1ccc(C(=O)C(CO)Oc2ccccc2OC)cc1OC (configuration not stated)	> 100 µM
N#CC(/C(=N/NC(=O)C(=O)NN)C(=O)NC12CC3CC(CC(C3)C1)C2)c1ccccc1 (configuration not stated)	> 100 µM
CC(C)(C)C(=O)/C=C/c1ccc(Oc2ccccc2)cc1	25 µM
CCOC(=O)CCc1c(C)c2c(OC(C)=O)cc(OC(C)=O)cc2oc1=O	> 100 µM
O=C(CN1CCCCC1)N1CCc2c([nH]c3ccccc23)C1c1cccnc1 (configuration not stated)	> 100 µM
COC(=O)C12C3C4C5(C(=O)OC)C(C1C35C(=O)N(C(C)C)C(C)C)C42C(=O)N(C(C)C)C(C)C (configuration not stated)	> 50 µM
O=C1CSC(Cc2nc3ccccc3[nH]2)=N1	> 100 µM
O=C(/C=C/c1ccccc1)/C=C/c1ccccc1	35.1 µM
N#C/C(=C\c1ccc(O)c(O)c1)C(N)=O	> 100 µM
N#CC(C(=O)/C(=N/Nc1nc(=S)[nH]n1N)C(C#N)c1ccccc1)c1ccccc1 (configuration not stated)	> 100 µM
N#CC(C#N)=c1[nH]c2cccc3c2-c2c(cccc2c3=C(C#N)C#N)[nH]1	> 100 µM

system: K-562 leukemia; test: NCI anticancer screen, dose series, 48 h

Structure (SMILES)	TGI
N#CC1(C2SCCS2=O)C2=C(C(=O)c3ccccc3C2=O)N2CCCC21 (configuration not stated)	25.7 µM
CCOC(=O)c1[nH]c(COC(C)=O)c(CCCOC(C)=O)c1CCCOC(C)=O	> 100 µM
O=C(Nc1ccc([N+](=O)[O-])cc1)C1C(=O)C(=O)N(c2ccc([N+](=O)[O-])cc2)C1=O (configuration not stated)	> 100 µM
CCOC(=O)C1N(S(=O)(=O)c2ccc(C)cc2)CCC12C(c1ccc(OC)cc1)NC1CCCCC12 (configuration not stated)	> 100 µM
COc1ccccc1NC(=O)C1=C(C)NC(C)=C(C(=O)Nc2ccccc2OC)C1c1ccc([N+](=O)[O-])cc1	> 100 µM
COC(=O)/C=C/C1C(C(=O)OC)C2(C(=O)OC)CCC1(C(=O)OC)N2 (configuration not stated)	> 100 µM
COc1ccc(C(=O)C(CO)Oc2ccccc2OC)cc1OC (configuration not stated)	> 100 µM
N#CC(/C(=N/NC(=O)C(=O)NN)C(=O)NC12CC3CC(CC(C3)C1)C2)c1ccccc1 (configuration not stated)	> 100 µM
CC(C)(C)C(=O)/C=C/c1ccc(Oc2ccccc2)cc1	36 µM
O=C(CN1CCCCC1)N1CCc2c([nH]c3ccccc23)C1c1cccnc1 (configuration not stated)	> 100 µM
COC(=O)C12C3C4C5(C(=O)OC)C(C1C35C(=O)N(C(C)C)C(C)C)C42C(=O)N(C(C)C)C(C)C (configuration not stated)	> 50 µM
Cc1cc(C)n(CCNCCn2nc(C)cc2C)n1	> 100 µM
O=C1CSC(Cc2nc3ccccc3[nH]2)=N1	> 100 µM
O=C(/C=C/c1ccccc1)/C=C/c1ccccc1	> 100 µM
N#C/C(=C\c1ccc(O)c(O)c1)C(N)=O	> 100 µM
N#CC(C(=O)/C(=N/Nc1nc(=S)[nH]n1N)C(C#N)c1ccccc1)c1ccccc1 (configuration not stated)	> 100 µM
N#CC(C#N)=c1[nH]c2cccc3c2-c2c(cccc2c3=C(C#N)C#N)[nH]1	> 100 µM

system: KM12 colon; test: NCI anticancer screen, dose series, 48 h

Structure (SMILES)	TGI
N#CC1(C2SCCS2=O)C2=C(C(=O)c3ccccc3C2=O)N2CCCC21 (configuration not stated)	13.1 µM
CCOC(=O)c1[nH]c(COC(C)=O)c(CCCOC(C)=O)c1CCCOC(C)=O	> 100 µM
O=C(Nc1ccc([N+](=O)[O-])cc1)C1C(=O)C(=O)N(c2ccc([N+](=O)[O-])cc2)C1=O (configuration not stated)	> 100 µM
O=C(CCC/C(CC(=O)c1ccc(Br)cc1)=N\O)Nc1ccccc1	> 100 µM
CCOC(=O)C1N(S(=O)(=O)c2ccc(C)cc2)CCC12C(c1ccc(OC)cc1)NC1CCCCC12 (configuration not stated)	> 100 µM
COc1ccccc1NC(=O)C1=C(C)NC(C)=C(C(=O)Nc2ccccc2OC)C1c1ccc([N+](=O)[O-])cc1	> 100 µM
COC(=O)/C=C/C1C(C(=O)OC)C2(C(=O)OC)CCC1(C(=O)OC)N2 (configuration not stated)	> 100 µM
COc1ccc(C(=O)C(CO)Oc2ccccc2OC)cc1OC (configuration not stated)	> 100 µM
N#CC(/C(=N/NC(=O)C(=O)NN)C(=O)NC12CC3CC(CC(C3)C1)C2)c1ccccc1 (configuration not stated)	> 100 µM
CC(C)(C)C(=O)/C=C/c1ccc(Oc2ccccc2)cc1	33.9 µM
CCOC(=O)CCc1c(C)c2c(OC(C)=O)cc(OC(C)=O)cc2oc1=O	> 100 µM
O=C(CN1CCCCC1)N1CCc2c([nH]c3ccccc23)C1c1cccnc1 (configuration not stated)	> 100 µM
COC(=O)C12C3C4C5(C(=O)OC)C(C1C35C(=O)N(C(C)C)C(C)C)C42C(=O)N(C(C)C)C(C)C (configuration not stated)	> 50 µM
Cc1cc(C)n(CCNCCn2nc(C)cc2C)n1	> 100 µM
O=C1CSC(Cc2nc3ccccc3[nH]2)=N1	> 64.1 µM
O=C(/C=C/c1ccccc1)/C=C/c1ccccc1	38.2 µM
N#C/C(=C\c1ccc(O)c(O)c1)C(N)=O	> 100 µM
N#CC(C(=O)/C(=N/Nc1nc(=S)[nH]n1N)C(C#N)c1ccccc1)c1ccccc1 (configuration not stated)	> 100 µM
N#CC(C#N)=c1[nH]c2cccc3c2-c2c(cccc2c3=C(C#N)C#N)[nH]1	> 100 µM

system: KM20L2 colon; test: NCI anticancer screen, dose series, 48 h

Structure (SMILES)	TGI
N#CC1(C2SCCS2=O)C2=C(C(=O)c3ccccc3C2=O)N2CCCC21 (configuration not stated)	19.3 µM
CCOC(=O)c1[nH]c(COC(C)=O)c(CCCOC(C)=O)c1CCCOC(C)=O	> 100 µM
O=C(Nc1ccc([N+](=O)[O-])cc1)C1C(=O)C(=O)N(c2ccc([N+](=O)[O-])cc2)C1=O (configuration not stated)	> 100 µM
O=C(CCC/C(CC(=O)c1ccc(Br)cc1)=N\O)Nc1ccccc1	> 100 µM
CCOC(=O)C1N(S(=O)(=O)c2ccc(C)cc2)CCC12C(c1ccc(OC)cc1)NC1CCCCC12 (configuration not stated)	> 100 µM
COc1ccccc1NC(=O)C1=C(C)NC(C)=C(C(=O)Nc2ccccc2OC)C1c1ccc([N+](=O)[O-])cc1	> 100 µM
COC(=O)/C=C/C1C(C(=O)OC)C2(C(=O)OC)CCC1(C(=O)OC)N2 (configuration not stated)	> 100 µM
COc1ccc(C(=O)C(CO)Oc2ccccc2OC)cc1OC (configuration not stated)	> 100 µM
N#CC(/C(=N/NC(=O)C(=O)NN)C(=O)NC12CC3CC(CC(C3)C1)C2)c1ccccc1 (configuration not stated)	> 100 µM
CC(C)(C)C(=O)/C=C/c1ccc(Oc2ccccc2)cc1	40.2 µM
CCOC(=O)CCc1c(C)c2c(OC(C)=O)cc(OC(C)=O)cc2oc1=O	> 100 µM
O=C(CN1CCCCC1)N1CCc2c([nH]c3ccccc23)C1c1cccnc1 (configuration not stated)	> 100 µM
